Assay results reported in ChEMBL document CHEMBL4483862, “Open-source discovery of chemical leads for next-generation chemoprotective antimalarials” (2018).

System: Plasmodium berghei
Experiment: Luciferase/luciferin-expressing antifolate-resistant parasites were used to infect a culture of HepG2 cells that were pre-incubated with compounds. Infected hepatocytes emit light due to the luciferase reaction. Assay results are presented as the percent inhibition of light emission compared to control. […]
Assay type: functional
Details: sporozoite; for IC90: read-out: LUCIFERASE INFECTION ASSAY - IC90
[1] = read-out: LUCIFERASE INFECTION ASSAY - IC50

CNC(=O)CN(C)Cc1c(O)c(C(=O)NCc2ccccc2)cc2ccccc12
IC50 (PBLUC_HILL_SLOPE 3.62, PBLUC_R_SQUARED 0.233, read-out: LUCIFERASE INFECTION ASSAY - IC50): 8.75 µM
IC90: > 10 µM

O=C1NC2(CCOc3ccccc32)C(=O)N1Cc1cc2ccccc2nc1Cl (stereo not given)
IC50 (HEPG2TOX_HILL_SLOPE 1.06, HEPG2TOX_R_SQUARED 0.922, PBLUC_HILL_SLOPE 24.2, PBLUC_R_SQUARED 0.349, read-out: LUCIFERASE INFECTION ASSAY - IC50): 1.25 µM
IC90: 1.37 µM

CCN(C(=O)CSc1nc2ccccc2c(=O)n1-c1ccc(C(C)C)cc1)c1cccc2ccccc12
IC50 (FFLUC_HILL_SLOPE 12.2, FFLUC_R_SQUARED 0.564, PBLUC_HILL_SLOPE 2.95, PBLUC_R_SQUARED 0.421, read-out: LUCIFERASE INFECTION ASSAY - IC50): 4.55 µM
IC90: 9.59 µM

O=C1NCC(CSc2nc3cc(Cl)ccc3c(=O)n2C2CCCCC2)O1 (stereo not given)
IC50 (PBLUC_HILL_SLOPE 3.9, PBLUC_R_SQUARED 0.536, read-out: LUCIFERASE INFECTION ASSAY - IC50): 4.51 µM
IC90: 7.92 µM

CCOC(=O)c1[nH]c(C)c(C(=O)OCC(=O)Nc2ccc(S(=O)(=O)NC3=NCCCCC3)cc2)c1C
IC50 [1]: > 10 µM
IC90: > 10 µM

O=c1cc(CNc2ccccc2N2CCCCC2)nc2sccn12
IC50 [1]: 9.19 µM
IC90: > 10 µM

Cc1ccc(C(=O)Nc2nc(-c3ccccn3)cs2)cc1S(=O)(=O)N1CCCCC1
IC50 (HEPG2TOX_HILL_SLOPE 16.5, HEPG2TOX_R_SQUARED 0.73, PBLUC_HILL_SLOPE 17.5, PBLUC_R_SQUARED 0.446, read-out: LUCIFERASE INFECTION ASSAY - IC50): 7.18 µM
IC90: 8.14 µM

CCCCCCN(C(=O)Cn1ccsc1=N)c1nc(-c2ccccc2)cs1
IC50 (FFLUC_HILL_SLOPE 258, FFLUC_R_SQUARED 0.634, read-out: LUCIFERASE INFECTION ASSAY - IC50): > 10 µM
IC90: > 10 µM

CCCCCCCCCCCc1nnc(SCc2ccc(Cl)cc2)n1-c1ccccc1C(F)(F)F
IC50 (FFLUC_HILL_SLOPE 9.94, FFLUC_R_SQUARED 0.653, read-out: LUCIFERASE INFECTION ASSAY - IC50): > 6.3 µM
IC90: > 6.3 µM

COCCCn1c(SCc2ccc(C)cc2)nnc1-c1ccc(C(C)(C)C)cc1
IC50 (PBLUC_HILL_SLOPE 1.28, PBLUC_R_SQUARED 0.571, read-out: LUCIFERASE INFECTION ASSAY - IC50): > 8.06 µM
IC90: > 8.06 µM

COc1ccc2cc(CN(C)C(=O)c3cnn(Cc4ccccc4)c3)ccc2c1
IC50 [1]: 2.85 µM
IC90: > 10 µM

O=C1C=CC(=O)N1c1ccc(Cl)cc1Br
IC50 (FFLUC_HILL_SLOPE 1.45, FFLUC_R_SQUARED 0.668, PBLUC_HILL_SLOPE 3.96, PBLUC_R_SQUARED 0.503, read-out: LUCIFERASE INFECTION ASSAY - IC50): 4.99 µM
IC90: 8.68 µM

NC(=O)c1ccsc1NC(=O)CSc1ncc(-c2ccccc2)n1-c1ccccc1
IC50 (HEPG2TOX_HILL_SLOPE 1.27, HEPG2TOX_R_SQUARED 0.954, PBLUC_HILL_SLOPE 1.14, PBLUC_R_SQUARED 0.72, read-out: LUCIFERASE INFECTION ASSAY - IC50): 0.447 µM
IC90: 3.1 µM

Cc1cnc(C)c(Nc2nc(C(N)Cc3ccc(C(F)(F)F)cc3)cs2)n1 (stereo not given)
IC50 [1]: > 8.39 µM
IC90: > 8.39 µM

C=S(=O)(NS(=O)(=O)c1ccc(-c2cc(C(F)(F)F)n(C)n2)s1)c1ccc(Cl)cc1 (stereo not given)
IC50 [1]: > 6.82 µM
IC90: > 6.82 µM

O=C(NC1CC1)c1ccc(CN(Cc2csc(-c3ccsc3)n2)Cc2ccco2)cc1
IC50 (PBLUC_HILL_SLOPE 18.2, PBLUC_R_SQUARED 0.577, read-out: LUCIFERASE INFECTION ASSAY - IC50): 1.39 µM
IC90: 1.57 µM

O=C(Nc1ncc(Cc2ccccc2Br)s1)c1ccc2nc[nH]c2c1
IC50 (HEPG2TOX_HILL_SLOPE 2.12, HEPG2TOX_R_SQUARED 0.698, PBLUC_HILL_SLOPE 2.32, PBLUC_R_SQUARED 0.476, read-out: LUCIFERASE INFECTION ASSAY - IC50): 4.08 µM
IC90: > 10 µM

C=S(=O)(NC(=O)c1ccc(C(F)(F)F)cc1)c1ccccc1 (stereo not given)
IC50 [1]: > 10.1 µM
IC90: > 10.1 µM

CCOC(=O)c1c[nH]nc1S(=O)(=O)Nc1ccc[nH]c1=O
IC50 [1]: > 10 µM
IC90: > 10 µM

Cn1nc(CC(=O)N2CC(C(=O)N3CCCCC3)Oc3ccccc32)c2ccccc2c1=O (stereo not given)
IC50 [1]: > 10 µM
IC90: > 10 µM

Clc1ccccc1-c1cnc2cnc(-c3cnn(Cc4ccccc4)c3)cn12
IC50 [1]: > 8.55 µM
IC90: > 8.55 µM

Cc1cc(Br)c(O)c(/C=N/NC(=S)NC(C)(C)C)c1
IC50 (HEPG2TOX_HILL_SLOPE 12.3, HEPG2TOX_R_SQUARED 0.401, PBLUC_HILL_SLOPE 113, PBLUC_R_SQUARED 0.332, read-out: LUCIFERASE INFECTION ASSAY - IC50): 4.76 µM
IC90: 4.85 µM

Cc1ccc(C(CN2CCOCC2)NC(=O)c2occc2-c2ccccc2)cc1 (stereo not given)
IC50 (HEPG2TOX_HILL_SLOPE 140, HEPG2TOX_R_SQUARED 0.302, PBLUC_HILL_SLOPE 0.784, PBLUC_R_SQUARED 0.306, read-out: LUCIFERASE INFECTION ASSAY - IC50): 8.27 µM
IC90: > 10 µM

C/N=c1\scc(-c2ccc(OC(F)F)cc2)n1/N=C/c1cccs1
IC50 (FFLUC_HILL_SLOPE 2.65, FFLUC_R_SQUARED 0.0605, PBLUC_HILL_SLOPE 1.58, PBLUC_R_SQUARED 0.688, read-out: LUCIFERASE INFECTION ASSAY - IC50): 0.676 µM
IC90: 2.72 µM

Cc1nn(-c2ccccn2)c2nc(-c3ccc4c(c3)OCO4)ccc12
IC50 (HEPG2TOX_HILL_SLOPE 2.11, HEPG2TOX_R_SQUARED 0.932, read-out: LUCIFERASE INFECTION ASSAY - IC50): > 10 µM
IC90: > 10 µM

CCOc1ccc(NCC(=O)c2ccc(-c3ccccc3)cc2)cc1
IC50 (PBLUC_HILL_SLOPE 16.8, 2.19, PBLUC_R_SQUARED 0.173, 0.582, read-out: LUCIFERASE INFECTION ASSAY - IC50): 8.7 µM
IC90: > 10 µM

CCCCNC(=O)c1c(NC(=O)c2ccccc2C(F)(F)F)nc2ccccn12
IC50 (HEPG2TOX_HILL_SLOPE 6.6, HEPG2TOX_R_SQUARED 0.306, PBLUC_HILL_SLOPE 21.5, PBLUC_R_SQUARED 0.838, read-out: LUCIFERASE INFECTION ASSAY - IC50): 7.33 µM
IC90: 8.11 µM

Cc1cc(C2=NNC(=NC(C)(C)C)SC2)c(C)n1-c1ccccc1
IC50 (FFLUC_HILL_SLOPE 3.44, FFLUC_R_SQUARED 0.101, read-out: LUCIFERASE INFECTION ASSAY - IC50): > 10 µM
IC90: > 10 µM

O=C(CSc1nnc(-c2ccccc2)[nH]1)N1c2ccccc2OCC1c1ccccc1 (stereo not given)
IC50 (PBLUC_HILL_SLOPE 11.0, 1.31, PBLUC_R_SQUARED 0.138, 0.609, read-out: LUCIFERASE INFECTION ASSAY - IC50): 6.33 µM
IC90: > 10 µM

FC(F)(F)c1nnc2ccc(NC(c3ccccc3)c3cc4ccccc4o3)nn12 (stereo not given)
IC50 (FFLUC_HILL_SLOPE 3.11, FFLUC_R_SQUARED 0.599, PBLUC_HILL_SLOPE 15.6, PBLUC_R_SQUARED 0.326, read-out: LUCIFERASE INFECTION ASSAY - IC50): 3.65 µM
IC90: 4.2 µM

O=C(NNC(=S)Nc1ccc(Cl)c(Cl)c1)c1cccnc1Oc1ccccc1
IC50 [1]: > 7.62 µM
IC90: > 7.62 µM

CCCOc1ccc(/C=N/NC(=S)NCCCN2CCOCC2)c(OCCC)c1
IC50 (PBLUC_HILL_SLOPE 4.29, PBLUC_R_SQUARED 0.235, read-out: LUCIFERASE INFECTION ASSAY - IC50): 8.13 µM
IC90: > 10 µM

O=C(Cc1csc(-c2ccc(C(F)(F)F)cc2)n1)NCc1cnn(-c2ccccc2)c1
IC50 [1]: > 10 µM
IC90: > 10 µM

O=C(Nc1nc2ccccn2c1C(=O)NC1CCCC1)c1ccc(F)cc1
IC50 [1]: > 9.01 µM
IC90: > 9.01 µM

COc1ccc(C2CC(c3ccccc3)=Nc3ccccc3S2)cc1 (stereo not given)
IC50 (PBLUC_HILL_SLOPE 6.73, PBLUC_R_SQUARED 0.0739, read-out: LUCIFERASE INFECTION ASSAY - IC50): > 9.55 µM
IC90: > 9.55 µM

CCS(=O)(=O)c1ncc(Cl)c(C(=O)Nc2ccc(C(=O)OC)cc2)n1
IC50 (HEPG2TOX_HILL_SLOPE 3.26, HEPG2TOX_R_SQUARED 0.643, PBLUC_HILL_SLOPE 9.13, PBLUC_R_SQUARED 0.474, read-out: LUCIFERASE INFECTION ASSAY - IC50): 3.67 µM
IC90: 4.66 µM

Cc1cc(=O)n2nc(CSc3nc4ccccc4c(=O)n3C3CCCC3)sc2n1
IC50 [1]: > 10 µM
IC90: > 10 µM

Cc1cccc(/C=C(\c2nc3ccccc3[nH]2)S(=O)(=O)c2ccccc2)c1
IC50 (HEPG2TOX_HILL_SLOPE 1.77, HEPG2TOX_R_SQUARED 0.525, PBLUC_HILL_SLOPE 7.51, 3.20, PBLUC_R_SQUARED 0.576, 0.706, read-out: LUCIFERASE INFECTION ASSAY - IC50): 1.36 µM
IC90: 2.31 µM

CC(C)(C)c1csc(NC(=O)c2ccc(Br)cc2)n1
IC50 (HEPG2TOX_HILL_SLOPE 15.1, HEPG2TOX_R_SQUARED 0.819, PBLUC_HILL_SLOPE 4.4, PBLUC_R_SQUARED 0.25, read-out: LUCIFERASE INFECTION ASSAY - IC50): 5.3 µM
IC90: 8.74 µM

Cc1ccc2nc(NC(=O)c3cccc(F)c3)c(C(=O)NC3CCCC3)n2c1
IC50 [1]: 0.886 µM
IC90: 1.08 µM

CC(C)(C)C1CCc2nc3ccccc3c(C(=O)OCC(=O)c3ccc(Cl)s3)c2C1 (stereo not given)
IC50 [1]: > 10 µM
IC90: > 10 µM

Cc1ccc(S(=O)(=O)Oc2ccc(Cl)cc2Sc2cc(Cl)ccc2OS(=O)(=O)c2ccc(C)cc2)cc1
IC50 [1]: > 5.54 µM
IC90: > 5.54 µM

Cc1nn(Cc2n[nH]c(=S)o2)c(C)c1Br
IC50 [1]: > 11.4 µM
IC90: > 11.4 µM

[O-][S+](Cc1cc(N2CCCCC2)nc(-c2ccccn2)n1)c1ccc(Cl)cc1 (stereo not given)
IC50 [1]: > 7.99 µM
IC90: > 7.99 µM

Cc1ccc(-c2nc(SCc3nc(=O)c4c(-c5ccccc5)csc4[nH]3)[nH]c2-c2ccc(C)cc2)cc1
IC50 (FFLUC_HILL_SLOPE 10.3, FFLUC_R_SQUARED 0.755, read-out: LUCIFERASE INFECTION ASSAY - IC50): > 10 µM
IC90: > 10 µM
